Source: PMC5880497, “Interaction of lecithin:cholesterol acyltransferase with lipid surfaces and apolipoprotein A-I-derived peptides” (Journal of Lipid Research, 2018)
No end group written: not given here.

Legend:
[1] = molecular target: T1, glycosylated human LCAT protein (Homo sapiens, UniProt P04180); assay: MP-SPR binding of LCAT to immobilised biotin-labelled apoA-I-derived peptides; conditions: N-terminal biotin-peptide on streptavidin-coated sensor, LCAT 156-5,000 nM serial injections of 15 min, 10 μl/min, buffer A pH 7.4, 293 K, Langmuir fit
T1 construct: purchased Sino Biological Inc., Beijing, China; host or cells: human cells
T1 sequence (P04180 25-440): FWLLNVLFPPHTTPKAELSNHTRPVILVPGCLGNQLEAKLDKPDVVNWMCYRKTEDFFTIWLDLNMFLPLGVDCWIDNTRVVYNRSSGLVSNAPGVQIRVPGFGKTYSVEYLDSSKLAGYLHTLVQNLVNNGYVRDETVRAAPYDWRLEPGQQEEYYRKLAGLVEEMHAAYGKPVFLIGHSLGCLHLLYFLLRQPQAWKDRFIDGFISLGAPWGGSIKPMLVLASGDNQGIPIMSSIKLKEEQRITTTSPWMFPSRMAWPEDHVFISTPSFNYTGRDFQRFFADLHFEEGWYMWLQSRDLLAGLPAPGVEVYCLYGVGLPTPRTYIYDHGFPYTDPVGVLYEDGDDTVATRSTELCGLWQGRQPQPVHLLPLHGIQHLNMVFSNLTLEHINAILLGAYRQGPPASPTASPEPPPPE
Description: POPC dissolved in chloroform (25 mg/ml) was obtained from Avanti Polar Lipids (Alabaster, AL). Calcium chloride, HEPES, CHAPS, sodium chloride, EDTA, sodium azide, and potassium dihydrogen phosphate were obtained from Merck Sigma-Aldrich (Darmstadt, Germany). Potassium chloride was obtained from Honeywell Riedel de Haën (Seelz, Germany); disodium hydrogen phosphate was obtained from Fisher Scientific (Hampton, NH). Peptides and N-terminal biotin-labeled peptides were synthesized by Peptide Protein Research Ltd., Hampshire, UK and had the following amino acid sequences: i) 122-142, […]; ii) 135-155, […]; iii) 150-170, […]; iv) 150-170-Y166F, […]; and v) 185-205, […]. Lyophilized glycosylated human LCAT protein (Sino Biological Inc., Beijing, China; a recombinant protein produced in human cells) was reconstituted with 400 μl of ultrapure sterile water to yield LCAT at 5 μM in PBS (manufacturer specifications). Ultrapure water used for preparation of the buffer and in all measurements was prepared with a Milli-Q purification system, having a resistivity of 18 MΩ·cm and TOC level of <5 ppm. The following buffers were used: 20 mM PBS, 1 mM EDTA, 1 mM Na azide (pH 7.4) (buffer A); and 20 mM HEPES and 150 mM NaCl (pH 7.4) (buffer B).
Measurements were performed with a multi-parameter SPR Navi™ 200 (BioNavis Ltd., Tampere, Finland) instrument. The setup was equipped with two incident laser wavelengths, 670 nm and 785 nm, two independent flow channels, inlet tubing and outlet (waste) tubing, and an autosampler. Both of the flow channels were measured simultaneously with 670 nm and 785 nm incident light. The measurement temperature was kept constant at 293° K. Biotin-coated SPR sensors (Bionavis Ltd.) were placed in the flow-cell. The flow rates used for the streptavidin interaction with biotin, biotin-peptides with streptavidin, and for LCAT interaction with immobilized peptides were 10 μl/min. SPR spectra were recorded after introduction of buffer A into the flow-cell for 10–30 min until a stable baseline was achieved, after which the surface was fully saturated with streptavidin during a 10 min serial injection at 1.9 μM to saturate the SPR sensor. It was observed that after 5 min the SPR sensor was fully coated with streptavidin; therefore, the method was adapted to 5 min. In the second phase of the measurement, in DMSO solubilized biotin-peptides with a final concentration of 100 μM were injected in parallel into both flow channels for 7 min at […] to cover the SPR sensor fully, i.e., until all streptavidin bindings sites were fully occupied. Parallel injections ensured that two peptides were analyzed simultaneously. Increasing concentrations of LCAT were then injected into both channels via serial injection, to ensure the lowest variation of LCAT injection for 15 min at increasing concentrations (156, 313, 625, 1250, 2,500, and 5,000 nM) to determine the binding constant of the LCAT-peptide complexes. The data was fitted in OriginPro (v. 8.6, OriginLab Corp., Northampton, MA) according to the Langmuir model to obtain the dissociation constants (Kd) and the responses of saturated binding (Rmax): R=Rmax/1+Kd/c
where R is the final response after each injection and c is the concentration of LCAT in each injection.
To also elucidate the specificity of different peptide regions against LCAT, we carried out MP-SPR experiments to determine dissociation constants (Kd) for the LCAT-peptide complexes. […]

[2] = LCAT with small unilamellar vesicles in the absence of apolipoproteins; cited from earlier work
Source text: To assess the possibility of the second hypothesis, we calculated the binding free-energies for LCAT in open and closed states. As shown by the PMF profiles in Fig. 5A, the lid-open state (ΔGwater→lipid = −28 ± 1 kJ/mol) is not able to bind so strongly to lipids when compared with the lid-closed state (ΔGwater→lipid = −34 ± 1 kJ/mol), although the previous findings indicated a deeper lipid interaction for the open state (Fig. 3B). The value for the closed state is well in agreement with existing experimentally determined dissociation constants giving binding a free-energy value of −36 kJ/mol f ...

[3] = QCM binding of LCAT, peptides or LCAT plus peptide to a POPC supported lipid bilayer; conditions: POPC SLB, LCAT 37.5 nM in buffer A, without apoA-I or peptide
Description: Prior to the QCM measurements, the PBS buffer formed after reconstitution of LCAT was exchanged for buffer A due to the extremely high sensitivity of the QCM method to slight differences in the ionic strength of the background buffer. The LCAT solution was placed in an Amicon Ultra-0.5 10K centrifugal filter device (Merck Millipore Ltd., Tullagreen Carrigtohill, Ireland) and equal volumes of buffer A were filtered through 10 times at 14,000 g, after which 400 μl of buffer A were added to fully recover LCAT at 5 μM. The peptides were dissolved into buffer A at a final concentration of 100 μM. An impedance-based QCM instrument (KSV Instruments Ltd., Helsinki, Finland) was used for the measurements. The measurement temperature was kept constant at 293° K. Before measurements, silica-coated QCM sensors (Q-Sense Inc./BiolinScientific, Västra Frölunda, Sweden) were first flushed with 70% ethanol and ultrapure water, dried under nitrogen flow, and finally oxygen plasma treated (PDC-002; Harrick Plasma, Ithaca, NY) for 5 min at 29.6 W and 133-173 Pa. Samples were injected into the measurement chamber with a peristaltic pump system (Ismatec/Cole-Parmer GmbH, Wertheim, Germany). […] Neither LCAT nor peptides induced changes in viscoelastic properties of the bilayer, which was seen as negligible changes in the recorded energy dissipation. […]

DRARAHVDALRTHLAPFSDEL [150-170-Y166F]
Kd [1]: 1840 nM

DRARAHVDALRTHLAPYSDEL [150-170]
Kd [1]: 290 nM

GGARLAEYHAKATEHLSTLSE [185-205, reference compound]
Kd [1]: 4690 nM

HELQEKLSPLGEEMRDRARAH [135-155]
Kd [1]: 819 nM

LRAELQEGARQKLHELQEKLS [122-142]
Kd [1]: 1030 nM

lecithin:cholesterol acyltransferase [LCAT]
Binding free-energy from experimentally determined dissociation constants [2]: -8.6 kcal/mol
Binding of LCAT alone to the POPC membrane [3]: binds to the POPC membrane without apoA-I
